# Assay results reported in ChEMBL document CHEMBL3988442, “University of Dundee, Small-Polar-MMV Screening Library” (2021).
# Tested on: Schistosoma mansoni
# Experiment: High throughput screening of compounds against Schistosoma mansoni motility
# Type: functional
# Set-up: dose or concentration left out as unconfirmed
row,Compound,Percent Effect
1,Oc1ccc(N2CCN(Cc3cc4c(cc3Br)OCCO4)CC2)cc1,-18.88%
2,N#Cc1c(F)cccc1N1CCC(NS(=O)(=O)c2cccs2)CC1,28.82%
3,CNC(=O)CSc1nc2c(cnn2Cc2ccc(F)cc2)c(=O)[nH]1,-34.73%
4,O=C(CSc1nc2c(cnn2CCO)c(=O)[nH]1)N1CCCCCC1,-11.33%
5,CN1C(=O)C(C)(C)COc2cc(NS(=O)(=O)c3ccccc3)ccc21,35.25%
6,CC(C)c1nn(CC(=O)N2CCCCC2)c(=O)c2c1cnn2C(C)(C)C,-88.07%
7,O=c1nc(SCc2ccncc2)c2c(n1CCO)CCCC2,-51.22%
8,CN(C)C(CNS(=O)(=O)c1ccc(F)cc1F)c1cccn1C (stereo not given),13.79%
9,Cc1noc(C)c1CCC(=O)N1CCN(CCn2cccn2)CC1,-23.72%
10,O=C(NCC(Cc1cccc(F)c1)N1CCCC1=O)c1ccccc1 (stereo not given),-23.79%
11,O=S(=O)(c1ccccc1)N1CCN(CCn2ccnc2)CC1,-51.46%
12,COC(=O)c1sccc1S(=O)(=O)NCC1(O)CCOc2ccccc21 (stereo not given),-15.01%
13,Cn1c(C(F)(F)F)nn(CCNC(=O)CSCc2ccccc2)c1=O,-2.069%
14,Cc1noc(-c2ccc(N3CCCC(C(=O)N4CCSCC4)C3)nc2)n1 (stereo not given),26.74%
15,N#Cc1ccc(OC2CCN(C(=O)c3ccc4c(c3)OCO4)CC2)nc1,-46.44%
16,COC(=O)c1sccc1S(=O)(=O)N1CCC(Oc2cccnn2)CC1,-55.3%
17,Cc1cnc2n(c1=O)CC(C(=O)Nc1ccccc1Cl)CS2 (stereo not given),-94.31%
18,O=C(NCCn1ccc(-c2ccncc2)n1)c1ccncc1,-35.45%
19,CCc1nnc2n1CCN(Cc1csc(-c3cnn(C)c3)n1)C2,-30.99%
20,CN(C(=O)Cn1nc(-c2ccc(F)cc2)oc1=O)C1CCS(=O)(=O)C1 (stereo not given),-46.67%
21,CC(NC(=O)N(C)Cc1ccncc1)c1nncn1C (stereo not given),-16.24%
22,CC(CNC(=O)Nc1ccc(N(C)C)nc1)Cn1cccn1 (stereo not given),-28.69%

row,Compound,Percent Effect
1,CCOc1cc(C)nc(N2CCN(Cc3nccn3C)CC2)n1,-40.52%
2,COc1ccccc1OCC(=O)Nc1ncccc1OC(F)F,13.82%
3,Cn1ccnc1-c1cccc(NC(=O)NCCN2CCOCC2)c1,-15.26%
4,Cn1c(CNc2c(F)cccc2-n2cccn2)cc(=O)n(C)c1=O,-12.04%
5,Cc1ccc(CC(=O)N2CCOC(c3nc(C(C)(C)C)n[nH]3)C2)cn1 (stereo not given),7.474%
6,Cc1cnn(CCC(=O)N2CCOC(c3nc(C(C)(C)C)n[nH]3)C2)c1 (stereo not given),-4.27%
7,Cn1cc(-c2csc(CN3CCOCC3)n2)cn1,14.63%
8,O=C(c1cc(Cl)c2c(c1)OCO2)N1CCN(c2ccccn2)CC1,-95.4%
9,Nc1cc(CCCNC(=O)NC2CC2)nn1-c1ccccc1,-35.32%
10,CC(OCC(F)(F)F)C(=O)N1CCN(S(C)(=O)=O)CC1 (stereo not given),-54.53%
11,OCCOc1nc(-c2ccccc2Cl)no1,-41.46%
12,CN(CC(F)(F)F)C(=O)C1CSCN1C(=O)OC(C)(C)C (stereo not given),-9.988%
13,Cc1nc2n(n1)CC(Nc1cc(C(F)(F)F)nc3ncnn13)CC2 (stereo not given),-11.7%
14,CCOCCN1CCN(Cc2nc(C3CC3)no2)CC1CC (stereo not given),-35.07%
15,CCc1ncc2c(n1)CN(Cc1nc(C)c(C)o1)CC2,-33.77%
16,CCC1CN(Cc2ccccc2)CCN1Cc1nnc(C2CCC2)o1 (stereo not given),44.59%
17,CCc1n[nH]c(C2CN(CC(=O)NCCc3ccsc3)CCO2)n1 (stereo not given),-30.25%
18,COc1ccc(NC(C)C(=O)N2CCN(Cc3ccccc3)CC2)cn1 (stereo not given),-29.98%
19,Cc1ccn(-c2ccccc2NCc2cccnc2C)n1,-3.196%
20,CCc1ccccc1C(=O)N1CCN(S(C)(=O)=O)[C@@H](C)C1,-27.03%
21,CCOc1ncccc1NC(=O)c1sccc1C,-42.63%
22,Cc1cc(C(=O)N2CCCC2c2nnc3n2CCCCC3)no1 (stereo not given),-2.272%

row,Compound,Percent Effect
1,CN1CCN(CCCNC(=O)c2cc(Cl)c3c(c2)OCO3)CC1,-22.9%
2,CN(C)C(=O)c1cccc(NC(=O)N(CCO)Cc2ccsc2)c1,-21.08%
3,COc1cccc(NC(=O)N(CCO)Cc2ccsc2)c1,-62.57%
4,CCc1nnc2n1CCN(C(=O)c1cnc3ccccc3n1)C2,-44.56%
5,Cc1nc(C)n(CC2CCCCN2CC(=O)Nc2cccnc2)n1 (stereo not given),-10.51%
6,CCOc1ncccc1NC(=O)c1cc(C)c(C)s1,-34.96%
7,N#CC1(C(=O)Nc2ccc(OC(F)F)cc2)CCCC1,6.367%
8,NC(=O)CSCCC(=O)N1CCCC1c1ccsc1 (stereo not given),10.97%
9,c1cc2c(cc1C1CCCN1Cc1nnnn1C1CC1)OCCO2 (stereo not given),5.096%
10,CN(CCCNc1cc(N2CCCC2CO)ncn1)S(C)(=O)=O (stereo not given),-51.96%
11,CS(=O)(=O)c1ccccc1C(=O)NCC1Cc2ccccc2O1 (stereo not given),-25.81%
12,Cc1nccn1-c1cc(CNC(=O)c2ccccn2)ccn1,-81.26%
13,N#Cc1ccc(CNCC2CCN(CCO)CC2)cc1,-28.87%
14,Cc1nc(C)n(CC2CCCN(CCc3ccncc3)C2)n1 (stereo not given),-44.91%
15,Cc1cc(C)n(CC2CCCN2C(=O)c2ccc3c(c2)nnn3C)n1 (stereo not given),-59.08%
16,CSCC(CCO)NC(=O)Nc1cc(C)ccc1C (stereo not given),-11.31%
17,CCN1CCCC1CN(CCN(C)C)S(=O)(=O)c1cccc(C#N)c1 (stereo not given),27.57%
18,CS(=O)(=O)c1ccc(CNCC2CCN(CCO)CC2)cc1,-49.34%
19,CCN(Cc1cccnc1)CC1CCCO1 (stereo not given),-47.82%
20,Cc1cccc(CNCc2c(C(C)C)nn(C)c2N2CCOCC2)n1,-46%
21,C1CCCN(c2nc(C3CC3)ns2)CC1,-22.51%
22,Cc1nc2ccccn2c1CN(Cc1cccnc1)CC1CCCO1 (stereo not given),-47.66%

row,Compound,Percent Effect
1,O=C(CN(Cc1cccnc1)CC1CCCO1)Nc1ccc(F)cc1 (stereo not given),-30.42%
2,O=C(Cc1ccc(O)c(Cl)c1)N1CCN(CC2CC2)[C@@H]2CS(=O)(=O)C[C@@H]21,-40.54%
3,CCCN1CCCn2nc(CNC(=O)CCc3scnc3C)cc2C1,25.43%
4,Cc1cc(C[C@@H]2COC[C@@H]2NC(=O)CN2CCCC2)on1,-45.11%
5,C[C@@H]1CN(C2(C(=O)N3CCCCCC3)Cc3ccccc3C2)C[C@H](C)O1,12.64%
6,O=C1CCC2(CCN(Cc3cc(F)cc(F)c3)CC2)CN1CCO,4.054%
7,CN(C)C(=O)c1ccc2c(c1)N(C)C(CC(=O)NC(C)(C)CO)CO2 (stereo not given),4.699%
8,O[C@H]1[C@H](n2cc(-c3cccnc3)nn2)c2ccccc2C12CCNCC2,-35.88%
9,CN(CCN1CCCCCC1)C(=O)c1cc(CN2CCC(O)CC2)on1,-17.62%
10,CC(C)(CO)NC(=O)C1CCC(=O)N(Cc2ccc(Cl)cc2)C1 (stereo not given),-0.822%
11,Cn1nc(C(=O)N2CCCCC2c2nc3cc(F)ccc3[nH]2)ccc1=O (stereo not given),-12.79%
12,CCS(=O)(=O)N1CCC2(CCCN(Cc3cc(OC)ccc3F)C2)C1 (stereo not given),49.58%
13,COCc1cc(NCCc2ccc(F)cc2)n2nccc2n1,-25.55%
14,CSc1ncc(C(=O)N2C[C@H]3CC[C@@H]2CN(Cc2ccccc2)C3)cn1,-35.01%
15,CCC(=O)N1CCC(c2nnc(Cn3cccn3)n2C2CC2)CC1,-15.52%
16,CC(C)C1CN(c2ncc(F)cn2)CCC(=O)N1Cc1ccc(F)cc1 (stereo not given),75.74%
17,CN(C)S(=O)(=O)N1C[C@@H]2CC[C@H](C1)N(Cc1ccc3nsnc3c1)C2,-23.4%
18,CN1CCN(Cc2nnc(C3CCN(CC4CC4)CC3)n2C)CC1,-64.34%
19,Cc1ncc(-c2nc3cc(S(=O)(=O)N4CCCC4)ccc3n2C)cn1,-72.39%
20,CCN(CCn1cccn1)Cc1nc(-c2ccccc2F)oc1C,-13.18%
21,COCC(O)CNC(=O)c1coc(COc2ccc3sc(C)nc3c2)n1 (stereo not given),22.1%
22,CN(CCCc1cnn(C)c1)C(=O)C1CCOC1 (stereo not given),-54.96%

row,Compound,Percent Effect
1,O=C(CCCc1cn[nH]c1)N1C[C@@H](CN2CCOCC2)[C@@H](CO)C1,-60.63%
2,O=S(=O)(Cc1ccccc1)NCc1ccco1,-25.54%
3,O=C(CCc1cc2n(n1)CCCN(Cc1ccccc1F)C2)NC1CC1,-12.36%
4,Cc1ccccc1N1CCCN(C(=O)CCCS(N)(=O)=O)CC1,-57.21%
5,COCc1cn([C@@H]2c3ccccc3C3(CCNCC3)[C@H]2O)nn1,-22.09%
6,NC(=O)COc1cccc(C(=O)Nc2cnc3n2CCCC3)c1,-21.49%
7,Cc1ccsc1CN(Cc1ccccn1)CC(C)C,6.222%
8,Cc1nc[nH]c1CN1C[C@@H]2CC[C@H](C1)N(C(=O)CCc1cnn(C)c1)C2,-10.53%
9,O=C(CCc1ccsc1)N1CCC(Cc2ccc(CO)cc2)C1 (stereo not given),6.677%
10,CSCCCN1CCn2nc(CNC(C)=O)cc2C1,-25.09%
11,Cc1cc(N2CCN3CCCCC3C2)n2nc(C)c(C)c2n1 (stereo not given),-7.768%
12,O=C(CSc1ccncc1)N1C[C@H]2CC[C@@H]1CN(Cc1cccnc1)C2,-27.79%
13,CN(C)C(=O)c1ccc2c(c1)N(C)C(CC(=O)NCCC(C)(C)C)CO2 (stereo not given),-13.7%
14,O=C(CSc1ncccn1)N1C[C@H]2CC[C@@H]1CN(Cc1ccncc1)C2,-45.84%
15,CN(C)C(C(=O)N1CCC(N2CCSCC2)CC1)c1ccccc1F (stereo not given),10.46%
16,CC(C)NC(=O)c1nnn(-c2cccc(C(F)(F)F)c2)c1N,32.01%
17,CC(C)C(=O)N1CCN(C(=O)c2cscn2)[C@H]2CS(=O)(=O)C[C@H]21,-16.72%
18,CCN(c1ccc(C(=O)N2CCCC(C)C2)cc1)S(=O)(=O)CC (stereo not given),-11.81%
19,O=C1CC(c2cccs2)c2snc(C(=O)O)c2N1 (stereo not given),18.04%
20,CC(=O)c1cc(CN2C[C@H]3CC[C@@H]2CN(S(=O)(=O)N(C)C)C3)cs1,-16.28%
21,O=C(c1cccc(S(=O)(=O)NCCCc2ncc[nH]2)c1)N1CCOCC1,-82.46%
22,Cl.O=C(Cc1ccc(F)cc1)N1CCN(CC(O)C2CC2)CC1 (stereo not given),-44.17%
